Counter-ions that a name gives are not always drawn.
| melting point | Structure (SMILES) |
| --- | --- |
| 254 to 255 °C | CCCCc1nc2cc(Br)cc(C(=O)O)c2n1Cc1ccccc1Cl [Example 4, 5-Bromo-2-n-butyl-1-(2-chlorophenyl)methyl-1H-benzimidazole-7-carboxylic Acid] |
| 178 to 181 °C | CCCSc1ncc(C[C@H](NC(=O)CCC)C(=O)O)n1Cc1ccccc1Cl [Example 1, 3-[(2-Chlorophenyl)methyl]-2-propylthio-N-butyrylhistidine] |
| 118 to 120 °C | CCCCc1ncc(CC(Cc2ccccc2)C(=O)O)n1Cc1ccccc1Cl (stereo not drawn) (as salt: hydrochloride) [Example 2, 3-[2-n-Butyl-1-{(2-chlorophenyl)methyl}-1H-imidazol-5-yl]-2-benzylpropanoic Acid] |

Reference: US20030004201A1, “Medicament” (SmithKline Beecham p.l.c., priority 1990, published 2003)
